Source: ChEMBL document CHEMBL1201862, “PubChem BioAssay data set” (2004)
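How tested: cells in 96-well plates exposed to compound for 48 hours at five concentrations. GI50 marks 50% less growth.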 Calls of active or inactive are those of the source. Rule as the data show it: active = GI50 up to about 1.1 µM and inactive = higher.

What was measured:
Experiment in all cases: DTP human tumour cell line panel, 48 h
[1] = tested on: SR
[2] = tested on: SK-OV-3
[3] = tested on: MDA-MB-231
[4] = tested on: SK-MEL-2
[5] = tested on: LOX IMVI
[6] = tested on: HCT-15
[7] = tested on: HL-60
[8] = tested on: HOP-92
[9] = tested on: ACHN
[10] = tested on: NCI-H226
[11] = tested on: NCI-H522
[12] = tested on: OVCAR-3
[13] = tested on: U-251
[14] = tested on: OVCAR-4
[15] = tested on: T47D
[16] = tested on: A549
[17] = tested on: BT-549
[18] = tested on: HCT-116
[19] = tested on: DU-145
[20] = tested on: RXF 393

SMILES	GI50 [1]	GI50 [2]	GI50 [3]	GI50 [4]	GI50 [5]	GI50 [6]	GI50 [7]	GI50 [8]	GI50 [9]	GI50 [10]	GI50 [11]	GI50 [12]	GI50 [13]	GI50 [14]	GI50 [15]	GI50 [16]	GI50 [17]	GI50 [18]	GI50 [19]	GI50 [20]
O=c1c2ccc(Cl)cc2oc2c(CNc3ccc(S(=O)(=O)Nc4ncccn4)cc3)cccc12	> 100 µM (inactive)	> 100 µM (inactive)	> 100 µM (inactive)	> 100 µM (inactive)	> 100 µM (inactive)	> 100 µM	> 100 µM (inactive)	> 100 µM (inactive)	> 100 µM (inactive)	> 100 µM (inactive)	> 100 µM (inactive)	> 100 µM (inactive)	> 100 µM (inactive)	> 100 µM (inactive)	> 100 µM (inactive)	> 100 µM (inactive)	> 100 µM (inactive)	> 100 µM (inactive)		
O=C(c1ccccc1)C1C(C(=O)c2ccccc2)N1Cc1ccccc1 (stereo unspecified)		27.5 µM (inactive)	26.1 µM (inactive)	17.5 µM (inactive)	31.2 µM (inactive)	57.3 µM		26 µM (inactive)	41.9 µM (inactive)	32.6 µM (inactive)	24.5 µM (inactive)	27.8 µM (inactive)	27.6 µM (inactive)	39.9 µM (inactive)	11.6 µM (inactive)	24.2 µM (inactive)	25.9 µM (inactive)		24.4 µM (inactive)	
[N-]=[N+]=NC1=C(N=[N+]=[N-])c2cccc3cccc(c23)C1=O	88.3 µM (inactive)	> 100 µM (inactive)	60.1 µM (inactive)	> 100 µM (inactive)	> 100 µM (inactive)	> 100 µM		> 100 µM (inactive)	> 100 µM (inactive)	> 100 µM (inactive)	> 100 µM (inactive)	> 100 µM (inactive)	97.7 µM (inactive)	> 100 µM (inactive)	> 100 µM (inactive)	> 100 µM (inactive)	> 100 µM (inactive)	> 100 µM (inactive)		65.6 µM (inactive)
CCOC(=O)C(C)(C)Oc1ccc(Cl)cc1 [CLOFIBRATE]		986 µM (inactive)	> 1000 µM (inactive)	173 µM (inactive)	156 µM (inactive)	435 µM	> 1000 µM (inactive)	177 µM (inactive)	> 1000 µM (inactive)	188 µM (inactive)	435 µM (inactive)		> 1000 µM (inactive)	322 µM (inactive)	202 µM (inactive)	432 µM (inactive)	> 1000 µM (inactive)	214 µM (inactive)	935 µM (inactive)	160 µM (inactive)
Brc1ccccc2cc(-c3ccccc3)nc1-2		8.69 µM (inactive)	2.6 µM (inactive)	4.61 µM (inactive)	2.23 µM (inactive)	2.24 µM	1.27 µM (inactive)	3.32 µM (inactive)	3.37 µM (inactive)	5.05 µM (inactive)	2.86 µM (inactive)	2.16 µM (inactive)	7.87 µM (inactive)	2.9 µM (inactive)		14.7 µM (inactive)	19.3 µM (inactive)	1.85 µM (inactive)	11.9 µM (inactive)	2.09 µM (inactive)
CN(Cc1cnc2nc(N)nc(N)c2n1)c1ccc(C(=O)NC2CCCCC2)cc1	33.2 µM (inactive)	54.6 µM (inactive)	33.6 µM (inactive)	35.5 µM (inactive)	5.51 µM (inactive)	20.8 µM	23.7 µM (inactive)		23.3 µM (inactive)	23.1 µM (inactive)		56.2 µM (inactive)	11.8 µM (inactive)		87.1 µM (inactive)		23.2 µM (inactive)	6.65 µM (inactive)	37.6 µM (inactive)	33 µM (inactive)
O=C(O)CC1OCC=C2CN3CCC45C6=CC(=O)C(O)=C([N+](=O)[O-])C6=NC4C1C2CC35 (stereo unspecified)		> 100 µM (inactive)	> 100 µM (inactive)	> 100 µM (inactive)	40.8 µM (inactive)	> 100 µM	52 µM (inactive)	> 100 µM (inactive)	> 100 µM (inactive)	> 100 µM (inactive)	> 100 µM (inactive)	> 100 µM (inactive)	> 100 µM (inactive)	> 100 µM (inactive)	> 100 µM (inactive)	> 100 µM (inactive)	> 100 µM (inactive)	> 100 µM (inactive)	> 100 µM (inactive)	> 100 µM (inactive)
Clc1ccc(Nc2nnc(CNc3ccc(-c4nnc(Nc5ccc(Cl)cc5)o4)cc3)o2)cc1		22.6 µM (inactive)	7.93 µM (inactive)	18.3 µM (inactive)	6.95 µM (inactive)	14.9 µM	2.63 µM (inactive)	23.9 µM (inactive)	17.1 µM (inactive)	20.9 µM (inactive)	16 µM (inactive)	11.2 µM (inactive)	8.71 µM (inactive)	17.4 µM (inactive)	24.6 µM (inactive)	13.6 µM (inactive)	17.7 µM (inactive)	12.2 µM (inactive)	12.7 µM (inactive)	18.5 µM (inactive)
CSc1nc(-c2cc3c(c(SC)n2)CCC3)cc2c1CCC2		> 100 µM (inactive)	> 100 µM (inactive)	> 100 µM (inactive)		> 100 µM	> 100 µM (inactive)		> 100 µM (inactive)	> 100 µM (inactive)	> 100 µM (inactive)	> 100 µM (inactive)	> 100 µM (inactive)	> 100 µM (inactive)		> 100 µM (inactive)	> 100 µM (inactive)	> 100 µM (inactive)	> 100 µM (inactive)	> 100 µM (inactive)
O=C(O)Cc1c(-c2ccc([N+](=O)[O-])cc2)c(=O)oc2cc(O)ccc12	25.9 µM (inactive)	35.2 µM (inactive)	29.4 µM (inactive)	21.2 µM (inactive)	36.1 µM (inactive)	24.2 µM	17.7 µM (inactive)		24.2 µM (inactive)	29 µM (inactive)	29 µM (inactive)	18.9 µM (inactive)	15.7 µM (inactive)			37.3 µM (inactive)	23.8 µM (inactive)	26.1 µM (inactive)	30.4 µM (inactive)	30.3 µM (inactive)
COc1ccc(CC(C)NCC(O)c2ccc(O)c(NC=O)c2)cc1 (stereo unspecified)	> 100 µM (inactive)	> 100 µM (inactive)	< 0.01 µM (active)	> 100 µM (inactive)	> 100 µM (inactive)	> 100 µM			> 100 µM (inactive)	> 100 µM (inactive)	> 100 µM (inactive)	> 100 µM (inactive)	> 100 µM (inactive)	> 100 µM (inactive)	> 100 µM (inactive)	> 100 µM (inactive)	> 100 µM (inactive)	43.4 µM (inactive)	> 100 µM (inactive)	> 100 µM (inactive)
O=C(O)c1ccc(-c2nc3cc(Cl)ccc3[nH]2)cc1	> 100 µM (inactive)	> 100 µM (inactive)	> 100 µM (inactive)	> 100 µM (inactive)		> 100 µM	> 100 µM (inactive)	> 100 µM (inactive)		> 100 µM (inactive)	> 100 µM (inactive)	> 100 µM (inactive)	> 100 µM (inactive)		> 100 µM (inactive)	> 100 µM (inactive)	> 100 µM (inactive)			> 100 µM (inactive)
CC(NC(=O)c1ccc(Cl)c(Cl)c1)c1ccc(-c2ccccc2)cc1 (stereo unspecified)	15.2 µM (inactive)	27.5 µM (inactive)	42.7 µM (inactive)	> 100 µM (inactive)	38.3 µM (inactive)	> 100 µM	4.58 µM (inactive)	25.5 µM (inactive)	50.1 µM (inactive)	31.3 µM (inactive)	33.3 µM (inactive)	20.8 µM (inactive)	31.7 µM (inactive)	16.4 µM (inactive)		16.4 µM (inactive)	66.5 µM (inactive)	59.3 µM (inactive)	18.3 µM (inactive)	12.1 µM (inactive)
C1=Nc2sc3c(c2C2=NCCN12)CCCC3	21.2 µM (inactive)		14.2 µM (inactive)	0.465 µM (active)	14.7 µM (inactive)	16.4 µM	13.6 µM (inactive)		17.1 µM (inactive)	13.3 µM (inactive)	15.9 µM (inactive)	17.6 µM (inactive)	21.4 µM (inactive)	20.6 µM (inactive)	17.7 µM (inactive)		15.2 µM (inactive)	16.3 µM (inactive)	16.3 µM (inactive)	25 µM (inactive)
CCOP(=O)(OCC)OC1CC(n2cnc3c(N(CC)CC)ncnc32)OC1CO[Si](C)(C)C(C)(C)C (stereo unspecified)	31.3 µM (inactive)	17.5 µM (inactive)		21.7 µM (inactive)	16.2 µM (inactive)	21.4 µM	65 µM (inactive)		15.3 µM (inactive)	19.2 µM (inactive)	14.3 µM (inactive)	20.3 µM (inactive)	15.1 µM (inactive)	14.1 µM (inactive)	12 µM (inactive)	15.7 µM (inactive)	16.1 µM (inactive)	16.8 µM (inactive)	15.5 µM (inactive)	16.9 µM (inactive)
Cc1ccnc2nc(-c3cccc4ccccc34)cc(O)c12	0.0007 µM (active)	0.00471 µM (active)	0.149 µM (active)	0.000458 µM (active)	0.00713 µM (active)	0.00434 µM	0.000487 µM (active)	0.00123 µM (active)	0.0248 µM (active)	0.0336 µM (active)	0.00106 µM (active)	0.00258 µM (active)	0.00445 µM (active)	0.115 µM (active)		0.019 µM (active)	14.1 µM (inactive)	0.00542 µM (active)	0.035 µM (active)	0.0879 µM (active)
